This note sets out measurements from US9938273B2 (Plexxikon Inc., priority 2015, dated 2018).

Each structure is given as a SMILES string.

The subject of this test is MOLM-14 F691L cells, FLT3 ITD and FLT3 F691L. Briefly: Cell proliferation assay (CellTiter-Glo), MOLM-14 F691L. In kind it is cell-based. The conditions noted are these: Homo sapiens, 72 h, 3d-Growth, GMean. The essentials: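 MOLM-14 AML cells (endogenous FLT3 ITD, AC220-selected D835Y or F691L variants) or murine Ba/F3 expressing full-length FLT3 ITD/D835Y, without IL-3 for FLT3 dependence, 1×10^4 cells/well. Eight-point 1:3 series from 1 μM final, 0.2% DMSO, 3 days at 37 °C. CellTiter-Glo luminescence (ATP) gave IC50.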
Regarding `C#Cc1cc2cc(-c3cccc(S(=O)(=O)NC4CC4)c3)cnc2[nH]1` [Compound P-0004, N-cyclopropyl-3-(2-ethynyl-1H-pyrrolo[2,3-b]pyridin-5-yl)benzenesulfonamide], the IC50 lay in the range of 0.0001 to 10 µM.

As to `CN(C)CC#Cc1cc2cc(-c3cccc(S(=O)(=O)NC4CC4)c3)cnc2[nH]1` [Compound P-0009, N-cyclopropyl-3-[2-[3-(dimethylamino)prop-1-ynyl]-1H-pyrrolo[2,3-b]pyridin-5-yl]benzenesulfonamide], the IC50 lay in the range of 0.0001 to 10 µM.

Turning to `O=S(=O)(NC1CC1)c1cccc(-c2cnc3[nH]c(C#CC4CCCCC4)cc3c2)c1` [Compound P-0010, 3-[2-(2-cyclohexylethynyl)-1H-pyrrolo[2,3-b]pyridin-5-yl]-N-cyclopropyl-benzenesulfonamide], the IC50 was in the range of 0.0001 to 10 µM.

Take `CNC1CCN(C(=O)c2cccc(-c3cnc4[nH]c(-c5cn(C)nc5C)cc4c3)n2)C1` (stereo not drawn) [Compound P-0049, [6-[2-(1,3-dimethylpyrazol-4-yl)-1H-pyrrolo[2,3-b]pyridin-5-yl]-2-pyridyl]-[3-(methylamino)pyrrolidin-1-yl]methanone]: the IC50 fell in the range of 0.0001 to 10 µM.

Consider `c1ccc(-c2cc3cc(-c4cccc(OC5CCNCC5)n4)cnc3[nH]2)cc1` [Compound P-0050, 2-phenyl-5-[6-(4-piperidyloxy)-2-pyridyl]-1H-pyrrolo[2,3-b]pyridine], for which the IC50 fell in the range of 0.0001 to 10 µM.

In turn, `N[C@H]1CCN(C(=O)c2ncc(-c3cnc4[nH]c(-c5ccccc5)cc4c3)s2)C1` [Compound P-0054, [(3S)-3-aminopyrrolidin-1-yl]-[5-(2-phenyl-1H-pyrrolo[2,3-b]pyridin-5-yl)thiazol-2-yl]methanone] returned a 50% inhibitory concentration (IC50) of 0.0001 to 10 µM.

`O=C(Nc1cccc(-c2cnc3[nH]c(-c4ccccc4)cc3c2)n1)C1CNC1` [Compound P-0084, N-[6-(2-phenyl-1H-pyrrolo[2,3-b]pyridin-5-yl)-2-pyridyl]azetidine-3-carboxamide] registered an IC50 of 0.0001 to 10 µM.

For `O=C(c1cccc(-c2cnc3[nH]c(-c4ccccc4)cc3c2)n1)N1CCC(NC2CC2)C1` (stereo not drawn) [Compound P-0085, [3-(cyclopropylamino)pyrrolidin-1-yl]-[6-(2-phenyl-1H-pyrrolo[2,3-b]pyridin-5-yl)-2-pyridyl]methanone], the IC50 lay within 0.0001 to 10 µM.

`O=S(=O)(NC1CCNCC1)c1cccc(-c2cnc3[nH]c(-c4ccccc4)cc3c2)n1` [Compound P-0086, 6-(2-phenyl-1H-pyrrolo[2,3-b]pyridin-5-yl)-N-(4-piperidyl)pyridine-2-sulfonamide] gave an IC50 of 0.0001 to 10 µM.

Take `NC1CCC(NS(=O)(=O)c2cccc(-c3cnc4[nH]c(-c5ccccc5)cc4c3)n2)CC1` (stereo not drawn) [Compound P-0088, N-(4-aminocyclohexyl)-6-(2-phenyl-1H-pyrrolo[2,3-b]pyridin-5-yl)pyridine-2-sulfonamide]: the IC50 was 0.0001 to 10 µM.

Consider `N#CC1CCN(C(=O)c2cccc(-c3cnc4[nH]c(-c5ccc(F)cc5)cc4c3)n2)C1` (stereo not drawn) [Compound P-0116, 1-[6-[2-(4-fluorophenyl)-1H-pyrrolo[2,3-b]pyridin-5-yl]pyridine-2-carbonyl]pyrrolidine-3-carbonitrile], for which the IC50 fell in the range of 0.0001 to 10 µM.

`CC(C)(C#N)NC(=O)c1cccc(-c2cnc3[nH]c(-c4cscn4)cc3c2)n1` [Compound P-0167, N-(1-cyano-1-methyl-ethyl)-6-(2-thiazol-4-yl-1H-pyrrolo[2,3-b]pyridin-5-yl)pyridine-2-carboxamide]: the IC50 fell in the range of 0.0001 to 10 µM.

`CC(C)(C#N)NC(=O)c1cccc(-c2cnc3[nH]c(-c4cnn(C(=O)C5CC5)c4)cc3c2)n1` [Compound P-0184, N-(1-cyano-1-methyl-ethyl)-6-[2-[1-(cyclopropanecarbonyl)pyrazol-4-yl]-1H-pyrrolo[2,3-b]pyridin-5-yl]pyridine-2-carboxamide]: the half-maximal inhibitory concentration (IC50) is 0.0001 to 10 µM.

For `CC(C)(C#N)NC(=O)c1cccc(-c2cnc3[nH]c(-c4cnn(C(F)F)c4)c(Cl)c3c2)n1` [Compound P-0185, 6-[3-chloro-2-[1-(difluoromethyl)pyrazol-4-yl]-1H-pyrrolo[2,3-b]pyridin-5-yl]-N-(1-cyano-1-methyl-ethyl)pyridine-2-carboxamide], the IC50 was in the range of 0.0001 to 10 µM.

As to `CC(C)(C#N)NC(=O)c1cccc(-c2cnc3[nH]c(C4=CCS(=O)(=O)CC4)cc3c2)n1` [Compound P-0186, N-(1-cyano-1-methyl-ethyl)-6-[2-(1,1-dioxo-3,6-dihydro-2H-thiopyran-4-yl)-1H-pyrrolo[2,3-b]pyridin-5-yl]pyridine-2-carboxamide], the 50% inhibitory concentration (IC50) was 0.0001 to 10 µM.

`CC(C)Oc1ccc(-c2cc3cc(-c4cccc(C(=O)NC(C)(C)C#N)n4)cnc3[nH]2)cn1` [Compound P-0190, N-(1-cyano-1-methyl-ethyl)-6-[2-(6-isopropoxy-3-pyridyl)-1H-pyrrolo[2,3-b]pyridin-5-yl]pyridine-2-carboxamide]: the half-maximal inhibitory concentration (IC50) lay in the range of 0.0001 to 10 µM.

`CC(C)Oc1ncc(-c2cc3cc(-c4cccc(C(=O)NC(C)(C)C#N)n4)cnc3[nH]2)cn1` [Compound P-0191, N-(1-cyano-1-methyl-ethyl)-6-[2-(2-isopropoxypyrimidin-5-yl)-1H-pyrrolo[2,3-b]pyridin-5-yl]pyridine-2-carboxamide]: the half-inhibitory concentration (IC50) is 0.0001 to 10 µM.

`Cc1nn(C(C)C)cc1-c1[nH]c2ncc(-c3cccc(C(=O)NC(C)(C)C#N)n3)cc2c1Cl` [Compound P-0192] gave an IC50 of 0.0001 to 10 µM.

In turn, `CC(C)(C#N)NC(=O)c1cccc(-c2cnc3[nH]c(-c4cnn(CC(F)(F)F)c4)cc3c2)n1` [Compound P-0193, N-(1-cyano-1-methyl-ethyl)-6-[2-[1-(2,2,2-trifluoroethyl)pyrazol-4-yl]-1H-pyrrolo[2,3-b]pyridin-5-yl]pyridine-2-carboxamide] returned an IC50 of 0.0001 to 10 µM.

Compound `CC(C)(C#N)NC(=O)c1cccc(-c2cnc3[nH]c(-c4ccc(C5(C#N)CC5)cc4)cc3c2)n1` [Compound P-0194, 6-[2-[4-(1-cyanocyclopropyl)phenyl]-1H-pyrrolo[2,3-b]pyridin-5-yl]-N-(1-cyano-1-methyl-ethyl)pyridine-2-carboxamide] returned a half-maximal inhibitory concentration (IC50) of 0.0001 to 10 µM.

For `CC(C)(C#N)NC(=O)c1cccc(-c2cnc3[nH]c(-c4cncnc4)cc3c2)n1` [Compound P-0195, N-(1-cyano-1-methyl-ethyl)-6-(2-pyrimidin-5-yl-1H-pyrrolo[2,3-b]pyridin-5-yl)pyridine-2-carboxamide], the IC50 is 0.0001 to 10 µM.

The compound `COc1ncc(-c2cc3cc(-c4cccc(C(=O)NC(C)(C)C#N)n4)cnc3[nH]2)cn1` [Compound P-0196, N-(1-cyano-1-methyl-ethyl)-6-[2-(2-methoxypyrimidin-5-yl)-1H-pyrrolo[2,3-b]pyridin-5-yl]pyridine-2-carboxamide] returned an IC50 of 0.0001 to 10 µM.

`CC(C)(C#N)NC(=O)c1cccc(-c2cnc3[nH]c(-c4ccc(N5CCOCC5)nc4)cc3c2)n1` [Compound P-0197, N-(1-cyano-1-methyl-ethyl)-6-[2-(6-morpholino-3-pyridyl)-1H-pyrrolo[2,3-b]pyridin-5-yl]pyridine-2-carboxamide] came in with a half-inhibitory concentration (IC50) of 0.0001 to 10 µM.

In turn, `CC(C)(C#N)NC(=O)c1cccc(-c2cnc3[nH]c(-c4ccc(C(F)(F)F)nc4)cc3c2)n1` [Compound P-0201, N-(1-cyano-1-methyl-ethyl)-6-[2-[6-(trifluoromethyl)-3-pyridyl]-1H-pyrrolo[2,3-b]pyridin-5-yl]pyridine-2-carboxamide] registered a half-maximal inhibitory concentration (IC50) of 0.0001 to 10 µM.

Compound `CCOc1ncc(-c2cc3cc(-c4cccc(C(=O)NC(C)(C)C#N)n4)cnc3[nH]2)cn1` [Compound P-0203, N-(1-cyano-1-methyl-ethyl)-6-[2-(2-ethoxypyrimidin-5-yl)-1H-pyrrolo[2,3-b]pyridin-5-yl]pyridine-2-carboxamide] returned an IC50 of 0.0001 to 10 µM.

`CC(C)(C#N)NC(=O)c1cccc(-c2cnc3[nH]c(-c4cnc(C(F)(F)F)nc4)cc3c2)n1` [Compound P-0204, N-(1-cyano-1-methyl-ethyl)-6-[2-[2-(trifluoromethyl)pyrimidin-5-yl]-1H-pyrrolo[2,3-b]pyridin-5-yl]pyridine-2-carboxamide] yielded an IC50 of 0.0001 to 10 µM.

`CCc1ncc(-c2cc3cc(-c4cccc(C(=O)NC(C)(C)C#N)n4)cnc3[nH]2)cn1` [Compound P-0205, N-(1-cyano-1-methyl-ethyl)-6-[2-(2-ethylpyrimidin-5-yl)-1H-pyrrolo[2,3-b]pyridin-5-yl]pyridine-2-carboxamide] had an IC50 of 0.0001 to 10 µM.

For `CCCOc1ncc(-c2cc3cc(-c4cccc(C(=O)NC(C)(C)C#N)n4)cnc3[nH]2)cn1` [Compound P-0206, N-(1-cyano-1-methyl-ethyl)-6-[2-(2-propoxypyrimidin-5-yl)-1H-pyrrolo[2,3-b]pyridin-5-yl]pyridine-2-carboxamide], the IC50 is 0.0001 to 10 µM.

With `CC(C)(C#N)NC(=O)c1cccc(-c2cnc3[nH]c(-c4ccc(F)nc4)cc3c2)n1` [Compound P-0208, N-(1-cyano-1-methyl-ethyl)-6-[2-(6-fluoro-3-pyridyl)-1H-pyrrolo[2,3-b]pyridin-5-yl]pyridine-2-carboxamide], the IC50 was 0.0001 to 10 µM.

Compound `CC(C)(C#N)NC(=O)c1cccc(-c2cnc3[nH]c(-c4cnc(C(C)(C)O)nc4)cc3c2)n1` [Compound P-0211, N-(1-cyano-1-methyl-ethyl)-6-[2-[2-(1-hydroxy-1-methyl-ethyl)pyrimidin-5-yl]-1H-pyrrolo[2,3-b]pyridin-5-yl]pyridine-2-carboxamide] registered a concentration for half-maximal inhibition (IC50) of 0.0001 to 10 µM.
